Test results taken from patent US20230364079A1, “COMPOUND AS BRAIN-PERMEABLE BTK OR HER2 INHIBITOR, PREPARATION METHOD THEREFOR, AND USE THEREOF” (CHENGDU HYPERWAY PHARMACEUTICALS CO., LTD., priority 2020, published 2023).

Experiments:
[1] = target: BTK mutation-type C481S kinase (Homo sapiens (Human), UniProt Q06187, C481S); assay: BTK-C481S kinase activity inhibition test in vitro (Caliper EZ Reader); assay type: biochemical
Method: (§1) In the tests on the activity of inhibiting BTK and HER2 kinase in vitro in the examples of the present disclosure, powder of the compound was dissolved in 100% DMSO to prepare a 10 mM stock solution and stored at-20° C. in the dark. […] In addition, the compounds were subjected to experiments such as liver microsome metabolic stability, rat PK, rat brain penetration rate, and drug efficacy model in the examples of the present disclosure.
(§2) Compound powders were dissolved in 100% DMSO to make 10 mM stock solutions, which were stored at -20° C. in the dark.
(§3) 2: Kinase Reaction Process
(§4) (1) Preparation of 1 × Kinase buffer.
(§5) (5) After centrifugation at 1000 rpm for 30 seconds, the reaction plate was shaken to mix well and incubated at room temperature for 10 min.
(§6) (6) A 5/3-fold final concentration of a mixed solution of ATP and Kinase substrate 2 was prepared with 1 × Kinase buffer.
(§7) (7) 15 µL of the mixed solution of ATP and substrate with 5/3-fold final concentration was added to start the reaction.
(§8) (8) The 384-well plate was centrifuged at 1000 rpm for 30 seconds, shaken to mix well, and incubated at room temperature for 10 min.
(§9) (9) 30 µL of a stop solution was added to stop the kinase reaction, and after centrifugation at 1000 rpm for 30 seconds, the plate was shaken to mix well;
(§10) (10) The conversion rate was read with Caliper EZ Reader.
(§11) where Conversion%_sample indicates the conversion rate reading of the sample; Conversion%_min is the average reading of the negative control wells, representing the conversion rate reading of the wells without enzyme activity; Conversion%_max is the average reading of the ratio of the positive control wells, representing the conversion rate reading of the wells without compound inhibition.
(§12) Dose-Response Curve Fitting
(§13) With the log value of the concentration as the X-axis, and the percentage inhibition rate as the Y-axis, the dose-effect curve was fitted using the log(inhibitor) vs. response-Variable slope of the analysis software GraphPad Prism 5, so as to determine the IC50 value of each compound on the enzyme activity.
(§14) The calculation formula was: […]

BTK wild-type kinase = BTK wild-type kinase (Homo sapiens (Human), UniProt Q06187); assay: BTK kinase activity inhibition test in vitro (Caliper EZ Reader); assay type: biochemical
Sequence of BTK wild-type kinase (Q06187 whole entry): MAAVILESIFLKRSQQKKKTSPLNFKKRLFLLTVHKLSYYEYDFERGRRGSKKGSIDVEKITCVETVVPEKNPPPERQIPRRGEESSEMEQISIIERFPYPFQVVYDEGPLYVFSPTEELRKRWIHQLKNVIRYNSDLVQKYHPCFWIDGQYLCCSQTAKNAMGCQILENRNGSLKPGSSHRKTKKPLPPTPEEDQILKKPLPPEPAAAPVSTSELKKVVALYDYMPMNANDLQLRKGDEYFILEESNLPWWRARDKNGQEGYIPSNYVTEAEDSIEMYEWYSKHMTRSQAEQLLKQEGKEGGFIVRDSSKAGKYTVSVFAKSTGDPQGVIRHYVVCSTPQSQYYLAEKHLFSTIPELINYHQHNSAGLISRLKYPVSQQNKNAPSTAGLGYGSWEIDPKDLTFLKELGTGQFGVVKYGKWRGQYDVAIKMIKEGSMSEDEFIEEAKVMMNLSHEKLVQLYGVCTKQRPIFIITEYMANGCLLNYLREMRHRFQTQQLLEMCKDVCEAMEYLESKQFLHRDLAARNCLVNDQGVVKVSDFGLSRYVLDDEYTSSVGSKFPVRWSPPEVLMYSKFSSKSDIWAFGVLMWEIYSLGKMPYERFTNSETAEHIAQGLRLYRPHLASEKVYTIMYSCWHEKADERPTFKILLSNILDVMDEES
Method: as §1, §2, §3, §4, §5, §6, §7, §8, §9, §10, §11, §12, §13, §14

[2] = Liver microsome metabolic stability test, rat; assay type: in vitro ADME; conditions: for microsomal CLint / half-life: liver microsomes; for half-life: read-out: T½
Method: (§15) 1: To the sample wells of T0, T5, T10, T20, T30, T60 and NCF60, 10 µL of the test or reference working solution and 80 µL of microsome working solution (hepatic microsome with a protein concentration of 0.5 mg/mL) were added, and to Blank60 well, only the microsome working solution was added. Then samples of the Blank60, T5, T10, T20, T30 and T60 other than T0 and NCF60 were placed in a 37° C. water bath and pre-incubated for about 10 min.
(§16) 2: To the T0 sample well, 300 µL of stop solution (containing 200 ng/mL tolbutamide and 200 ng/mL labetalol in acetonitrile solution) was added first, followed by 10 µL of NADPH regeneration system working solution.
(§17) 3: After the pre-incubation of Blank60, T5, T10, T20, T30 and T60 incubation plates, 10 µL of NADPH regeneration system working solution was added to each sample well to start the reaction, and 10 µL of 100 mM potassium phosphate buffer was added to the NCF60 sample well.
(§18) 4: After incubation for an appropriate time (such as 5, 10, 20, 30 and 60 min), to each test sample well and control well of the Blank60, T5, T10, T20, T30, T60 and NCF60 plates, 300 µL of stop solution was added to terminate the reaction.
(§19) 5: All sample plates were shaken to mix well and centrifuged at 4000 rpm for 20 min, and 100 µL of the supernatant of the test sample or control sample was taken and diluted with 300 µL of pure water for LC-MS/MS analysis.
(§20) 6: Data analysis: T½ and CLint(mic) (µL/min/mg) values were calculated according to the first-order elimination kinetics. The first-order elimination kinetics equation was: […]

[3] = Liver microsome metabolic stability test, human; assay type: in vitro ADME; conditions: for microsomal CLint / half-life: liver microsomes; for half-life: read-out: T½
Method: as §15, §16, §17, §18, §19, §20

[4] = Pharmacokinetic test, oral, SD rats; assay type: in vivo; conditions: oral 10 mg/kg, plasma; for AUC(0-inf) / Cmax / half-life: rat; for Cmax: read-out: Cmax; for half-life: read-out: T½ (converted)
Method: Each test compound was administered orally (10 mg/kg, 3 rats in each group) to SD rats for pharmacokinetic study. […] Animals were fasted overnight before oral administration, and fed again after 4 h of administration. […] At each collection time point, 3 whole blood samples were collected at a the collection volume of about 0.2-0.3 mL. […] The collected plasma was stored at -20° C. before analysis. 20 µL of plasma sample was added into a 1.6 mL 96-well deep-well plate, added with 200 µL of working internal standard solution (the same volume of vehicle was added to the blank instead of internal standard), vortexed for 1 min, and centrifuged at 5800 rpm for 10 min. 100 µL of the supernatant was added to a 96-well injection plate for LC-MS/MS analysis.

Sequence of BTK mutation-type C481S kinase (Q06187 whole entry C481S): as the sequence (Q06187 whole entry) above, with C481S counted along it

| SMILES | IC50 [1] [nM] | IC50 (BTK wild-type kinase) [nM] | half-life ([2]; 0.5 mg/mL protein) [min] | half-life ([3]; 0.5 mg/mL protein) [min] | %Remaining (60 min) [2] [%] | %Remaining (60 min) [3] [%] | other results |
| --- | --- | --- | --- | --- | --- | --- | --- |
| Nc1cccc(NC(=O)c2ccc(-c3nc([C@@H]4CC[C@@H](CO)OC4)n4ccnc(N)c34)cc2)n1 (single isomer, unassigned) [Compound 2-A-P2] | 20 to 100 | 20 to 100 |  |  |  |  |  |
| Nc1nccn2c(C3CC[C@@H](CO)OC3)nc(-c3ccc(C(=O)Nc4ccccn4)cc3F)c12 (some centres unmarked) [Compound 1-B] | 5 to 20 | 20 to 100 |  |  | 63.7 | 99.9 | CLint [2]: 18.2 µL/min/mg; T½ ([2]; 0.5 mg/mL protein): 76.1 min; CLint [3]: <9.6 µL/min/mg; T½ ([3]; 0.5 mg/mL protein): >145 min |
| COc1cccc(Oc2ccc(-c3nc(C4CCC(CO)OC4)n4ccnc(N)c34)cc2)c1F (centres unmarked) [Compound 5] | < 5 | < 5 | 11.4 | 35.7 | 12.7 | 31.7 | Cl [4]: 69.13 mL/min/kg; AUC(0-inf) [4]: 2520 ng·h/mL; Cmax [4]: 463 ng/mL; half-life [4]: 70.2 min |
| [2H]C([2H])([2H])Oc1cccc(Oc2ccc(-c3nc(C4CCC(CO)OC4)n4ccnc(N)c34)cc2)c1F (centres unmarked) [Compound 7] | < 5 | < 5 |  |  |  |  |  |
| Nc1nccn2c(C3CCC(CO)OC3)nc(-c3ccc(Oc4cccc(F)c4F)cc3)c12 (centres unmarked) [Compound 8] | < 5 | < 5 | 20.8 | 40.9 | 13.6 | 37.4 |  |
| Nc1nccn2c(C3CCC(CO)OC3)nc(-c3ccc(Oc4cccc(Cl)c4F)cc3)c12 (centres unmarked) [Compound 9] |  |  | 12.2 | 28.6 | 3.2 | 24.5 |  |
| COc1cccc(Oc2ccc(-c3nc(C4CCC(CO)OC4)n4c(Cl)cnc(N)c34)cc2)c1F (centres unmarked) [Compound 12] |  |  | 11.8 | 11.1 | 3.0 | 2.6 |  |
| Nc1nccn2c(C3CCC(CO)OC3)nc(-c3ccc(Oc4ccccc4)cc3)c12 (centres unmarked) [Compound 16] |  | 5 to 20 | 21.7 | 37.5 | 14.6 | 31.8 |  |
| Nc1nccn2c(C3CCC(CO)OC3)nc(-c3ccc(Oc4ccccc4)cc3F)c12 (centres unmarked) [Compound 17] | 5 to 20 | 5 to 20 |  |  |  |  |  |
| Nc1nccn2c(C3CCC(CO)OC3)nc(-c3ccc(Oc4cccc(C(F)(F)F)c4F)cc3)c12 (centres unmarked) [Compound 19] |  | 5 to 20 | 16.7 | 29.4 | 7.9 | 23.5 |  |
| Cc1cccc(Oc2ccc(-c3nc(C4CCC(CO)OC4)n4ccnc(N)c34)cc2)c1F (centres unmarked) [Compound 24] |  | < 5 | 5.4 | 18.5 | 0.1 | 9.7 |  |
| Nc1nccn2c(C3CCC(CO)OC3)nc(-c3ccc(C(=O)c4ccccc4)cc3)c12 (centres unmarked) [Compound 26] | 5 to 20 | 5 to 20 | 30.1 | 44.5 | 24.5 | 39.1 |  |

More lines, main results first:

| IC50 [1] [nM] | IC50 (BTK wild-type kinase) [nM] | half-life ([2]; 0.5 mg/mL protein) [min] | half-life ([3]; 0.5 mg/mL protein) [min] | %Remaining (60 min) [2] [%] | %Remaining (60 min) [3] [%] | SMILES | other results |
| --- | --- | --- | --- | --- | --- | --- | --- |
|  | 5 to 20 | 143 | > 145 |  |  | COc1ccccc1C(=O)NCc1ccc(-c2nn(C3CCC(CO)OC3)c3ncnc(N)c23)cc1 (single isomer, unassigned) [Compound 60-A] | microsomal CLint [2]: 9.7 µL/min/mg; microsomal CLint [3]: < 9.6 µL/min/mg |
| < 5 | < 5 | 114 | > 145 | 72.7 | 85.4 | Nc1nccn2c(C3CCC(CO)OC3)nc(-c3ccc(C(=O)Nc4cc(C(F)(F)F)ccn4)cc3)c12 (single isomer, unassigned) [Compound 109-P1] | microsomal CLint [2]: 12.2 µL/min/mg; microsomal CLint [3]: < 9.6 µL/min/mg; Cl [4]: 1.62 mL/min/kg; AUC(0-inf) [4]: 104000 ng·h/mL; Cmax [4]: 16700 ng/mL; half-life [4]: 170 min |
| 5 to 20 | 5 to 20 | > 145 | > 145 | 90.3 | 112.0 | Nc1nccn2c(C34CCC(CO)(CC3)OC4)nc(-c3ccc(C(=O)Nc4ccccn4)cc3)c12 [Compound 34] | Cl [4]: 8.1 mL/min/kg; AUC(0-inf) [4]: 20600 ng·h/mL; Cmax [4]: 11100 ng/mL; half-life [4]: 102 min |
|  |  |  |  | 69 | 109.9 | COc1ccccc1C(=O)NCc1ccc(-c2nn(C3CCC(CO)OC3)c3ncnc(N)c23)cc1 (centres unmarked) [Compound 60-A] |  |
|  | 5 to 20 | 17 | 37.7 | 8.5 | 31.7 | Nc1nccn2c(C3CCC(CO)OC3)nc(-c3ccc(Oc4c(F)cccc4F)cc3)c12 (centres unmarked) [Compound 64] |  |
|  | 5 to 20 | 45.7 | 105 | 37.3 | 77.7 | Cc1ccnc(NC(=O)c2ccc(-c3nc(C4CCC(CO)OC4)n4ccnc(N)c34)cc2)c1 (centres unmarked) [Compound 70] |  |
|  | < 5 | 46.5 | > 145 | 39.5 | 81.1 | COc1cccc(Oc2ccc(-c3nc(C4CCC(CO)OC4)n4ccnc(N)c34)cc2)c1 (centres unmarked) [Compound 101] | Cl [4]: 48.75 mL/min/kg; AUC(0-inf) [4]: 3670 ng·h/mL; Cmax [4]: 1770 ng/mL; half-life [4]: 75 min |
| < 5 | < 5 | > 145 | > 145 | 85.7 | 100.3 | N#Cc1ccnc(NC(=O)c2ccc(-c3nc(C4CCC(CO)OC4)n4ccnc(N)c34)cc2)c1 (centres unmarked) [Compound 103] | Cl [4]: 16.67 mL/min/kg; AUC(0-inf) [4]: 10400 ng·h/mL; Cmax [4]: 4730 ng/mL; half-life [4]: 104 min |
| 5 to 20 | 20 to 100 |  |  |  |  | Nc1nccc2c1n(-c1ccc(Oc3ccccc3)cc1)c(=O)n2C1CCC(CO)OC1 (centres unmarked) [Compound 120] |  |
| 5 to 20 | 5 to 20 |  |  |  |  | COc1cccc(C(F)(F)c2ccc(-c3nc(C4CCC(CO)OC4)n4ccnc(N)c34)cc2)c1 (centres unmarked) [Compound 121] |  |
| 100 to 1000 | 100 to 1000 |  |  |  |  | Nc1nccn2c(C3CCC(CO)OC3)nc(-c3ccc(C(F)(F)c4cc(C(F)(F)F)ccn4)cc3)c12 (centres unmarked) [Compound 124] |  |
|  | 100 to 1000 | 13.5 | 30.2 | 25.8 | 25.4 | Nc1nccn2c(C34CCC(CO)(CC3)OC4)nc(-c3ccc(C(F)(F)c4cccc(Cl)c4F)cc3)c12 [Compound 152] | Cl [4]: 272.78 mL/min/kg; AUC(0-inf) [4]: 1330 ng·h/mL; Cmax [4]: 200 ng/mL; half-life [4]: 169 min |
|  | 100 to 1000 | 22.3 | 33.3 | 14.2 | 25.8 | Nc1nccn2c(C34CCC(CO)(CC3)OC4)nc(-c3ccc(C(F)(F)c4ccccc4Cl)cc3)c12 [Compound 155] |  |
